Laboratory results taken from US20180017584A1, “ADDITIVE CHANNELS” (Emulate Inc., priority 2016, published 2018).
Positions of bridges follow the written chain, without caps; N, C: chain ends. Non-standard residues stand in square brackets, D forms with d. Residues, ends and D or L forms follow the SMILES beside them. hArg = N=C(N)NCCCC[C@H](N)C(=O)O; Mpa = O=C(O)CCS

Key:
[1] = system: thrombin anti-thrombin complex (TAT); assay: Thrombin-Anti Thrombin (TAT) measurement via ELISA in chip effluent; type: cell-based, human; conditions: for levels of TAT in outflow: vs blood alone, TNF-α 50 ng/ml 6 h endothelial pre-treatment, sCollagen in blood, hu5C8 240 μg/ml + sCD40L 10 ng/ml
Procedure: Thrombin-Anti Thrombin (TAT) measurement via ELISA: Thrombin Anti-Thrombin (TAT) levels were analyzed in plasma from blood flowing out of the chip device by removing a sample from the outflow port. Thus TAT levels were evaluated in sample effluents collected from the outflow port of the chip using the Human TAT ELISA Kit (Siemens Healthineers) according to the user manual.
Blood sampled from the Vessel-On-Chip outflow port was analyzed for thrombin anti-thrombin complex (TAT), a factor released upon activation of the coagulation cascade and one of the biomarkers associated with thrombotic events occurring in patients affected with deep vein thrombosis (DVT) or SLE^45,46. TAT is an accepted clinical biomarker for procoagulation^48,49. An enzyme-linked immunosorbent assay (ELISA) was used to quantify the thrombin anti-thrombin complex (TAT).

[2] = system: platelets in human whole blood perfused over HUVEC endothelium; assay: Vessel-On-Chip blood perfusion, platelet coverage / aggregation by fluorescence imaging (CD41 label); type: cell-based; conditions: for platelet coverage / platelet aggregate formation on the endothelium: vs blood alone, TNF-α 50 ng/ml 6 h, sCollagen 10 μg/ml, hu5C8 240 μg/ml + sCD40L 10 ng/ml
Procedure: (§1) Experiments with Blood: Blood Samples And Endothelium: Citrated human blood (Research Blood Components, Cambridge, Mass.) was used within 4 hours of a blood draw in order to minimize pre-analytical effects on platelet function. Before every experiment, each one of the endothelialized channels (i.e. microchannels having an endothelial cell layer) was inspected via light microscopy, Samples showing any sign of discontinuity in the endothelium were discarded.
(§2) Blood Pre-treatment and Perfusion: Formation of IC (preformed IC): Hu5C8, IgG2σ (control) (both provided by Janssen or provided as described herein) For studies with preformed IC, Hu5C8 or IgG2σ as an isotype control were combined with sCD40L (Tonbo Biosciences, San Diego, Calif.) in PBS, in a ratio of I molecule of sCD40L to 3000 molecules of antibody. After 20 minutes incubation at room temperature, the solution was diluted in a blood sample to reach the final concentration of 240 μg/ml (Hu5C8) and 10 ng/ml (sCD40L).
Platelets: Platelets were labeled with human CD41-PE antibody (10 μL/ml. Invitrogen) directly added to the blood and incubated at room temperature for 5 minutes.
Anticoagulant Drug: As an exemplary standard antiplatelet (anticoagulant) drug, Eptifibatide was used as described herein. Eptifibatide has a well-known mechanism of action, such that a bolus of 180 mcg/Kg is frequently used to treat human patients.^54 We estimated that a concentration of 2.4 μM (about 2 μg/ml) is a clinical relevant concentration. As described herein for experiments including Eptifibatide, 2 μg/ml of Eptifibatide were incubated with blood samples for 15 minutes at room temperature before adding sCollagen or before flowing through TNF-inflamed biomimetic vessel.
(§3) Adding Blood to a Vessel-On-Chip And Flow Conditions: A medical grade plastic reservoir was mounted on the chip, then 800 μl of the blood sample was pipetted into the reservoir. The chip was perfused with the blood by withdrawing it at a rate of 60 μl/minute using a syringe pump. The citrated blood was re-calcified 2 minutes after the beginning of each experiment by adding 100 μl/ml of a solution containing 100 mM calcium chloride and 75 mM magnesium chloride to the blood to permit calcium- and magnesium-dependent platelet function and coagulation.
(§4) Staining of Endothelial Cells: Samples were washed twice in cell culture medium and then fixed in acetone/methanol 1:1 at −20° C., for 10 minutes. Each sample was then washed three times in PBS and incubated in blocking solution consisting of PBS and 10% normal donkey serum (Abcam) for one hour. After blocking, samples were washed in PBS twice and then incubated with anti VE-Cadherin monoclonal antibody (Abeam) diluted 1:100 in blocking solution at 4° C. overnight. […] Fluorescence Image analysis: Chips perfused with blood samples were immediately imaged via fluorescence microscopy (Olympus 1X83, 10× objective UPLFLN10X2, Circa-Flash4.0 CMOS Camera). […] Image processing and quantification was performed with an automatic macro compiled in […] and numerical values corresponding to platelet coverage or fibrin florescence were collected and statistically analyzed in Graphpad Prism V7.
Platelet Coverage: A percentage of signal coverage (or Platelet coverage) was computed from the binary image as the ratio of bright pixels to the total number of pixels in the image, Image processing and quantification was performed with an automatic macro compiled in ImageJ in order to ensure unbiased signal measurements. […]

[3] = system: fibrin deposition from human whole blood on HUVEC endothelium; assay: Vessel-On-Chip blood perfusion, fibrin deposition by fluorescent fibrinogen imaging; type: cell-based; conditions: for fibrin deposition / fibrin signal intensity on the endothelium: vs blood alone, TNF-α 50 ng/ml 6 h, sCollagen 10 μg/ml, hu5C8 240 μg/ml + sCD40L 10 ng/ml
Procedure: as §1, §3
Visualizing Fibrin Deposition: When analyzing the formation of fibrin, 10 μg/ml of fluorescently labeled fibrinogen (Alexa 488, Invitrogen) was also added to the blood. While fluorescent fibrinogen was barely detected as a diffused fluorescence, fibrin deposition on inflamed cells and sparse clots was easily distinguished since fibrin formed filamentous structures produce a signal intensity that is clearly observed above a background threshold.
as §4, with “hour.” for “hour. After blocking, samples were washed in PBS twice and then incubated with anti VE-Cadherin monoclonal antibody (Abeam) diluted 1:100 in blocking solution at 4° C. overnight.”
Platelet Coverage: A percentage of signal coverage (or Platelet coverage) was computed from the binary image as the ratio of bright pixels to the total number of pixels in the image, Image processing and quantification was performed with an automatic macro compiled in ImageJ in order to ensure unbiased signal measurements. Numerical values corresponding to platelet coverage or fibrin fluorescence (signal intensity) were collected and statistically analyzed in Graphpad Prism V7.

[4] = system: lupus nephritis patients; conditions: lupus nephritis clinical study; cited from earlier work
[5] = system: human whole blood perfused over HUVEC endothelium; assay: Thrombosis on-chip, combined endpoints (platelet coverage, fibrin deposition, TAT); type: cell-based; conditions: hu5C8 alone 240 μg/mL; sCD40L alone 10 ng/ml; 4 donors; 60 μl/minute
Procedure: as §2
(§5) To test for a thrombic event, blood was collected from 4 donors, the as blood alone or blood treated with hu5C8 alone (240 μg/mL), sCD40L (10 ng/ml) alone or with combined hu5C8/sCD40L was incubated for 20 minutes at room temperature. Each sample was further incubated for 5 minutes with fluorescent labels for platelets and fibrinogen. As a standard quality control, the control blood was tested for platelet activation using p-selection expression. We confirmed that platelets in control blood were not activated but upon activation by ADP, over 90% of platelet was positive for p-selectin.
Re-calcified blood samples were then perfused through the biomimetic vessel with untreated endothelium at a flow rate of 60 ul/minute for about 10 minutes while sodium citrate was re-introduced through the anticoagulant port. […]

[6] = system: p-selectin on platelets; assay: Quality control of platelet activation by p-selectin expression; type: cell-based, human; conditions: control blood upon activation by ADP
Procedure: as §5

[7] = system: ICAM1; assay: ICAM1 immunostaining of endothelium on chip; type: cell-based, human; conditions: TNF-α stimulated endothelium
Procedure: ICAM1 is shown with examples identified by white arrows. One example of a DAPI stained nuclei is shown inside of a white circle.
TNF-alpha Stimulation: In some experiment endothelial cells were stimulate with 50 ng/ml of TNF (Sigma) for 6 hours in order to induce vascular inflammation before blood perfusion.

[8] = Eptifibatide 2 ug/ml, endothelium inflamed with TNF-α, n=4

sCollagen: soluble collagen (Soluble Calf Skin, Type I), a standard platelet activator
levels of TAT in outflow [1]: minimally increased | platelet coverage / platelet aggregate formation on the endothelium [2]: increased | fibrin deposition / fibrin signal intensity on the endothelium [3]: increased

hu5C8: humanized monoclonal IgG1 antibody against CD40L (anti-CD154)
incidence of thromboembolitic events [4]: 2/18 | treatment-related effects compared to untreated blood [5]: no significant treatment-related effects

Nc1ncnc2c1ncn2[C@@H]1O[C@H](COP(=O)(O)OP(=O)(O)O)[C@@H](O)[C@H]1O [ADP]
platelets positive for p-selectin [6]: over 90%

TNF-α
expression of ICAM1 in the endothelium compared to the control [7]: increased expression | levels of TAT in outflow [1]: significantly increased | platelet coverage / platelet aggregate formation on the endothelium [2]: increased | fibrin deposition / fibrin signal intensity on the endothelium [3]: increased

N=C(N)NCCCC[C@@H]1NC(=O)CCSSC[C@@H](C(N)=O)NC(=O)[C@@H]2CCCN2C(=O)[C@H](Cc2c[nH]c3ccccc23)NC(=O)[C@H](CC(=O)O)NC(=O)CNC1=O [Eptifibatide] ([Mpa][hArg]GDWPC-NH2; disulfide 1-7)
effect on TAT increment associated with TNF-α-induced inflammation ([1]; Eptifibatide 2 ug/ml, TNF-α pre-treated endothelium): did not inhibit | effect on TAT increment due to sCollagen treatment ([1]; Eptifibatide 2 ug/ml, sCollagen-treated blood): entirely suppressed | inhibition of platelet aggregation [2, 8]: significantly inhibited | inhibitory effect on platelet aggregation and fibrin clot formation ([2]; Eptifibatide 2 ug/ml, following treatment with sCollagen, n=4): comparatively modest | platelet adhesion (image analysis of multiple experiments) ([2]; Eptifibatide 2 ug/ml, n=4): completely inhibited | inhibition of fibrin clot formation [3, 8]: significantly inhibited | fibrin signal remaining under Eptifibatide ([3]; Eptifibatide 2 ug/ml, samples treated with TNF-α): significant amount of fibrin signal was still detectable
